Experimental data as given in patent US20230109839A1, “THERAPEUTIC AGENT FOR TAUOPATHIES” (SUMITOMO PHARMA CO., LTD., priority 2020, published 2023).
“Also recorded” adds a separate entry of the source.

What was measured:
Assay type in all cases: in vivo, mouse
rTg4510 mice = assay: Cerebral atrophy in rTg4510 mice, MRI volume of brain regions (Test 5); settings: for lateral ventricular volume (mm^3): 4.5 mg/g-food, with ABT 1 mg/g-food
From the text: (§1) Test 5: Evaluation of Intracerebral Tau Aggregate Accumulation and Cerebral Atrophy Using rTg4510 Mice
(§2) This test is a test to evaluate the effects of the compounds on intracerebral tau aggregate accumulation and cerebral atrophy. The rTg4510 mice overexpress the human-type FTDP-17 mutant tau in the forebrain, and month-age-dependent intracerebral tau aggregate accumulation and cerebral atrophy are observed. The rTg4510 mice used herein were produced by mating Tg (tauP301L) 4510 mice (Stock No. 015815) and CaMKII-tTA mice (Stock No. 007004) purchased from The Jackson Laboratory and breeding them.
(§3) The test compound was administered as a mixed diet to rTg4510 mice from the age of 4 months, and PET scan and MRI were performed at the ages of 4, 6 and 8 months to quantitatively evaluate the amount of the intracerebral tau aggregate accumulated and cerebral atrophy. The PET scan was performed using MicroPET Focus 220 of Siemens Medical Solutions (0.851 mm thick (intercenter) 95 slices, 19.0 cm axial field of view (FOV), and 7.6 cm intra-section FOV). The administration of radioactive compound [^18F] PM-PBB3 (precursor obtained from Aprinoia) and the PET scan were performed in dimly lit after the mice was treated with 1.5% isoflurane anesthesia to avoid […] of the radioactive compound. The emission scan was performed for 60 minutes immediately after the intravenous administration of [^18F] PM-PBB3 (1 mCi) (3D list mode, energy window: 350-750 keV). Then, the list mode data sorted into 3D synograms were converted into 2D synograms by Fourier-rebinding (frames: 4×1, 8×2 and 8×5 minutes). The dynamic image for 60 minutes after the administration of [^18F] PM-PBB3 was reconstructed by a filter-corrected back projection with a 0.5 mm Hanning filter. Regions of interest (ROI) were set in multiple brain regions using PMOD image analysis software (PMOD Technology) with reference to the MRI templates and the PET reconstructed images. Tau aggregate accumulation was evaluated by calculating SUVR (Standardized uptake value ratio) with the cerebellum as a reference region, based on the added average of dynamic images from 40 minutes to 60 minutes.
The evaluation of cerebral atrophy was performed with horizontal superconducting magnet type MRI (7T, inner diameter 400 mm, self-shielding type, zero boil-off type). The imaging was performed under isoflurane anesthesia while maintaining the rectal temperature at 36.5±0.5° C. After Tripilot acquisition, the brain images were acquired by TurboRARE T2 emphasis sequence (TR: 4200 ms, TE: 36 ms, Fat-Sup: on, NA: 4, RARE factor: 8, scan time: 14 min) (FOV read: 25.6 mm, FOV P1: 14.5 mm, Slice thickness: 0.5 mm, number of slices: 28). The ROI of each brain region was set in each of the acquired slices, and the volume of the brain region was calculated by summing the ROI areas of all the slices to evaluate the effect of the test compound.

[1] = tested on: intracerebral tau aggregate accumulation; assay: Intracerebral tau aggregate accumulation in rTg4510 mice, tau PET with [18F] PM-PBB3, SUVR (Test 5); settings: for SUVR(cerebellum ratio) cerebral neocortex / SUVR(cerebellum ratio) hippocampus: 4.5 mg/g-food, with ABT 1 mg/g-food
From the text: as §1, §2, §3

[2] = tested on: phosphorylated tau oligomer; assay: Evaluation of phosphorylated tau oligomers in brain of APP-Tg mice, Western blotting (Test 4); settings: for Reducing effect of phosphorylated tau oligomer: 7-10 days, with ABT 1 mg/g-food
Method: Test 4: Evaluation of Phosphorylated Tau Oligomers Using APP-Tg Mice
This test is a test to quantify the oligomer of phosphorylated tau in the brain to evaluate the action of a compound. […] The APP-Tg mice used herein were prepared by the method described in Test 3.
The test compound administered with food to APP-Tg mice for 7-10 days. At this time, in order to increase the blood concentration of the test compound, ABT was used in combination with a mixed diet of 1 mg/g-food depending on the compound. After the administration, the brain was collected, and the protein is extracted from the collected brain using TBS (Tris Buffered Saline) or sarcosyl, and then SDS-PAGE (sodium dodecyl sulfate-polyacrylamide gel electrophoresis) of the soluble or insoluble fraction was performed. After that, Western blotting was performed using an anti-oligomerized tau antibody (Anti-Tau, oligomeric, clone TOMA-1), and the effect of the test compound was evaluated by quantifying the band amount of the phosphorylated tau oligomer.
The reducing effect of phosphorylated tau oligomer was calculated by the following formula, and from the calculated values, the results were defined as follows: 0-25%: +, 25-50%: ++, 50-75%: +++, and 75-100%: ++++. The significant difference from the vehicle-administered group was determined using the Student t-test. For the band amount, the value corrected by the β-actin band amount was used.
Reducing effect of phosphorylated tau oligomer={(band amount of oligomerized tau in vehicle-administered group−band amount of oligomerized tau in test compound-administered group)/band amount of oligomerized tau in vehicle-administered group}×100

[3] = mixed diet 4.5 mg/g-food with ABT 1 mg/g-food

## N#Cc1ccc(NC(=O)Cn2nc(N3CCC4(CC4)C(F)(F)C3)ccc2=O)cn1 [Example 560, N-(6-cyanopyridin-3-yl)-2-[3-(4,4-difluoro-6-azaspiro[2.5]octan-6-yl)-6-oxopyridazin-1(6H)-yl]acetamide]
rTg4510 mice; 4 month old
  lateral ventricular volume (mm^3): 0.47 ± 0.06 mm^3
rTg4510 mice; 6 month old
  lateral ventricular volume (mm^3): 0.34 ± 0.10 mm^3
rTg4510 mice; 8 month old
  lateral ventricular volume (mm^3): 0.71 ± 0.35 mm^3
rTg4510 mice; [3]
  age-dependent increase in lateral ventricular volume: suppressed
[1]; 4 month old
  SUVR(cerebellum ratio) cerebral neocortex: 1.026 ± 0.037
  SUVR(cerebellum ratio) hippocampus: 1.103 ± 0.036
[1]; 6 month old
  SUVR(cerebellum ratio) cerebral neocortex: 1.224 ± 0.060
  SUVR(cerebellum ratio) hippocampus: 1.328 ± 0.078
[1]; 8 month old
  SUVR(cerebellum ratio) cerebral neocortex: 1.351 ± 0.049
  SUVR(cerebellum ratio) hippocampus: 1.468 ± 0.056
[1]; [3]
  age-dependent increase in SUVR in the cerebral neocortex and hippocampus (FIG. 7): tended to be suppressed
[1]; mixed diet 4.5 mg/g-food with ABT 1 mg/g-food, ages 4, 6 and 8 months
  increase in PET tracer accumulation in each brain region with aging (average SUVR images, FIG. 6): suppressed
[2]; dose 0.5 mg/g-food
  Reducing effect of phosphorylated tau oligomer: ++ (25-50%: ++)
[2]; dose 4.5 mg/g-food
  Reducing effect of phosphorylated tau oligomer: ++++ (75-100%: ++++)
[2]; with food for 7-10 days, ABT 1 mg/g-food depending on the compound, brain, anti-oligomerized tau antibody TOMA-1
  reducing effect of tau oligomer: some reducing effect of tau oligomer; also recorded: strong reducing effect of tau oligomer
